Results reported in patent publication US12404232B2, “Compounds and compositions for intracellular delivery of therapeutic agents” (ModernaTX, Inc., priority 2015, dated 2025).

Columns and labels:
mice = assay: hEPO expression in mice after intravenous administration; assay type: in vivo; conditions: for hEPO expression (pg/ml) 3h / hEPO expression (pg/ml) 6 h / hEPO expression (pg/ml) 24 h: 0.5 mpk
Procedure: Sample formulations of nanoparticle compositions including different lipids are generally first evaluated according to Luc expression in vivo. The activity of several such compositions was further evaluated using an mRNA encoding hEPO. Nanoparticle compositions including Compounds 6, 18, 25, 30, 108-112, 60, and 122, or MC3 were prepared according to Example 2.
The expression of hEPO and cytokine induction in mice intravenously administered a nanoparticle composition at a dose of 0.5 mpk were measured at 3, 6, and 24 hours. […] The expression of hEPO in mice intramuscularly administered a nanoparticle composition from Table 1B at a dose of 0.01 mpk were measured at 3, 6, and 24 hours. […] (see also FIG. 9.)
Table 12 compares the nanoparticle compositions including compounds according to Formula (I), (IA), (II), (IIa), (IIb), (IIc), (IId) or (IIe) to the compositions including MC3 on the basis of expression and flux levels. […] Thus, these lipids may be useful in nanoparticle composition therapeutics. […]

rats = assay: Residual lipid levels in liver and spleen of rats (UPLC-MS quantification); assay type: in vivo, rat; conditions: for Lipid level in liver / Lipid level in spleen: rat, i.v., 0.2 mpk; for % Lipid Remaining in liver, 48 h* 2 mpk: assuming 300 g rat and 15 g liver
Procedure: At 48 h liver tissue was harvested for lipid quantification. To pre-weighed tissues, Milli-Q water was added (900 μL water per 100 mg tissue). Tissues were homogenized using an Omni probe homogenizer until uniform. 50 μL of samples and matrix calibration standards were aliquoted into a 96-well plate. 50 μL of blank matrix for matrix blanks and control blanks were aliquoted. 400 μL IS spiking solution were manually added to all samples except matrix blanks. 400 μL of 50:50 ACN:IPA were manually added to matrix blanks. The plate was covered and the samples vortexed and centrifuged for 5 minutes at >3000 rpm. 200 μL of the samples were transferred into a clean 96-well plate for analysis. Samples were analyzed on a Waters Acquity UPLC using a Higgins Analytical Clipeus C8 column ([…], 30×2.1 mm) and a gradient of either 70-95% or 60-95% (Mobile Phase A: 5 mM ammonium formate in 50:50:1 H2O:MeOH:formic acid; Mobile Phase B: 5 mM ammonium formate in 100:1 MeOH:formic acid) over 1.3 min at 1.2 mL/min (column temperature 55° C.). Detection was based on electrospray ionization (ESI) in positive mode using a Sciex API5500 Mass Spectrometer.
The expression of hEPO in rats intravenously administered a nanoparticle composition at a dose of 0.2 mpk or 2.0 mpk was measured at 6 hours. Table 16 summarize the ratio of hEPO expression levels using various nanoparticle compositions as compared to the hEPO expression level using MC3 formulation and the lipid levels in the liver measured 48 hours after administration, as described above. Tables 17 and 18 summarize the lipid levels in the liver and spleen measured 48 hours after administration of Compounds 28, 33, 53, and 54. Liver and spleen levels represent the average values calculated for 3 rats in each group. As is shown in Tables 17 and 18, less than 10% of Compounds 28, 33, 53, and 54 remained in the liver after 48 hours, while greater than 60% of MC3 remained.
(§1) Table 19 summarizes the hEPO expression, IP-10 induction, liver and spleen levels, and alanine aminotransferase (ALT) and aspartate aminotransferase (AST) measured upon intravenous administration of formulations including Compounds 48, 49, and 50 to rat at 0.2 and 2 mpk and hEPO mRNA. hEPO concentrations were measured 6 hours after administration, while cytokine induction and liver and spleen levels were measured 48 hours after administration. hEPO and IP-10 concentrations are presented in pg/ml, while liver levels are provided in ng/g. ALT and AST levels are presented in international units.
The expression of hEPO induced by intravenous administration to rats of nanoparticle compositions at various doses was measured at 2, 4, 6, 8, 24, and 48 hour time points. FIGS. 3-6 respectively summarize the hEPO expression measured upon intravenous administration of formulations including Compounds 26, 18, 25, and MC3 to rat at various doses. The lipid levels of Compound 26 in the liver after 48 hours were about 19%.
The expression of hEPO and lipid levels in the liver and spleen in rats intravenously administered a nanoparticle composition at a dose of 0.2 mpk was measured at various timepoints. Compounds 18 and 25 were selected for comparison with MC3. Lipids were formulated according to the standard MC3 formulation described above. Rats were administered intravenously a single 0.2 mpk dose and expression monitored at 0.25, 0.5, 1, 2, 4, 8, 24, and 48 hours after administration.

rat = assay: Clinical chemistry and hematology in rat after intravenous administration; assay type: in vivo; set-up: unit not given here; conditions: 2 mpk, 48 h post dose
Procedure: Sample formulations of nanoparticle compositions including different lipids were administered intravenously to rat at a dose of 2 mpk. The expression of various clinical markers was evaluated at 48 h post dose and compared to that induced by administration of MC3 formulations or phosphate buffered saline (PBS).
as §1

SMILES	hEPO expression (pg/ml) 3h (mice) [pg/mL]	hEPO expression (pg/ml) 6 h (mice) [pg/mL]	hEPO expression (pg/ml) 24 h (mice) [pg/mL]	% Lipid Remaining in liver, 48 h* 2 mpk (rats; rats, 48 h) [%]	Alanine aminotransferase (Concentration) (rat)	Aspartate aminotransferase (Concentration) (rat)	Lymphocytes (Concentration) (rat)	Monocytes (Concentration) (rat)	Neutrophils (Concentration) (rat)	also measured
CCCCCCCCCOC(=O)CCCCCCCN(CCO)CCCCCCCC(=O)OC(CCCCCCCC)CCCCCCCC [Compound 18, Heptadecan-9-yl 8-((2-hydroxyethyl)(8-(nonyloxy)-8-oxooctyl)amino)octanoate]	3e+06	3.38e+06	1.8e+06	0.018	–	–	–	–	–	hEPO concentrations compared with MC3 formulations at each time point (mice; 0.5 mpk, 3, 6 and 24 hours): higher hEPO concentrations than MC3 formulations; Lipid level in liver (rats; 0.25 h): 5374 ng/g; Lipid level in spleen (rats; 0.25 h): 1230 ng/g; Lipid level in liver (rats; 0.5 h): 6023 ng/g; Lipid level in spleen (rats; 0.5 h): 2017 ng/g; Lipid level in liver (rats; 1 h): 6053 ng/g; Lipid level in spleen (rats; 1 h): 3213 ng/g; Lipid level in liver (rats; 2 h): 2037 ng/g; Lipid level in spleen (rats; 2 h): 3070 ng/g; Lipid level in liver (rats; 4 h): 839 ng/g; Lipid level in spleen (rats; 4 h): 3770 ng/g; Lipid level in liver (rats; 8 h): 296 ng/g; Lipid level in spleen (rats; 8 h): 1345 ng/g; Lipid level in liver (rats; 24 h): 5 ng/g; Lipid level in spleen (rats; 24 h): 271 ng/g; Lipid level in liver (rats; 48 h): 5374 ng/g; Lipid level in spleen (rats; 48 h): 92 ng/g
CCCCCCCCCCCOC(=O)CCCCCN(CCO)CCCCCCCC(=O)OC(CCCCCCCC)CCCCCCCC [Compound 25, Heptadecan-9-yl 8-((2-hydroxyethyl)(6-oxo-6-(undecyloxy)hexyl)amino)octanoate]	–	–	–	1.32	52	124.5	15924	2122	1998	–
CCCCCC=CCC=CCCCCCCCCC(CCCCCCCCC=CCC=CCCCCC)OC(=O)CCCN(C)C (stereo not shown) [MC3, heptatriaconta-6,9,28,31-tetraen-19-yl 4-(dimethylamino)butanoate, reference compound]	1.57e+06	1.83e+06	810000	87	339	325	19976	1429	4962.5	remained in the liver after 48 hours (rats; rats, intravenous, 48 hours): greater than 60%
